In PMC9994261 (Cell, 2023):
Values after ≈ are worked out from the molar mass of the structure shown. Like-named read-outs stand apart in the source and are kept apart here.

Key:
M. bovis BCG Pasteur = experiment: microbe, parasite or virus in culture; assay type: cell-based, Mycobacterium bovis
CYP3A4 = target: T1, CYP3A4 (Homo sapiens, UniProt P08684); experiment: CYP3A4 reversible inhibition in human liver microsomes; assay type: in vitro ADME
T1 construct: human liver microsomes (purchased from BD Gentest as a pooled batch from 150 donors); tissue BD Gentest Cat#452117; host or cells: pooled human liver microsomes (150 donors)
Description: Incubations were performed with 0.1 mg/mL human liver microsomes (purchased from BD Gentest as a pooled batch from 150 donors) in a final incubation volume of 0.25 mL. The incubation medium contained 0.05 M phosphate buffer (pH 7.4) containing an NADPH regenerating system (including 1.3 mM NADP, 3.3 mM glucose 6-phosphate,3.3 mM MgCl2, and 1.0 U/mL glucose 6-phosphate dehydrogenase). Probe CYP3A4 substrates (midazolam at 3 μM and testosterone at 50 μM), were incubated for 10 and 30 min, respectively, with increasing concentrations of GM, MGM or CGM (concentration range: 1 - 30 μM). The reaction was stopped by adding acetonitrile to precipitate the proteins. The incubation mixtures were then centrifuged for 5 min at 10,000 × g, and an aliquot of the supernatant was analyzed using high-performance liquid chromatography coupled to mass spectrometry for the assessment of 1’-hydroxymidazolam and 6β-hydroxytestosterone metabolite formation.

physchem = assay type: physicochemical

T1 sequence (P08684 whole entry): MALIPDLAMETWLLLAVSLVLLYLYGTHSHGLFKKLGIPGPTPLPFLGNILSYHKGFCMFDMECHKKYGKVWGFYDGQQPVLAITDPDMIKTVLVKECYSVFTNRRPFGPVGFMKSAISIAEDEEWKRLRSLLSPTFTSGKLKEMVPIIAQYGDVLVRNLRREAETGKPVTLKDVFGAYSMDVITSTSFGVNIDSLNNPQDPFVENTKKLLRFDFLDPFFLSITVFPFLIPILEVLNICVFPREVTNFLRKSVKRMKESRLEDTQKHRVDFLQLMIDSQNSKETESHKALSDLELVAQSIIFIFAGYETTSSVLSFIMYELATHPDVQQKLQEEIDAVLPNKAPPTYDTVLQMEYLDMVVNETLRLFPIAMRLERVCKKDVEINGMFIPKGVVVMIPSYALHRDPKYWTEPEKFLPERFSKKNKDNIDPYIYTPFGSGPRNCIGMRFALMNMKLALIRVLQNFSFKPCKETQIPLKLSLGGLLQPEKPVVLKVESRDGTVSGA

Question: Which results are given for CON=C1CC(C)OC(OC2C(C)CC(C)(OC(=O)NC(C)(C)CNS(=O)(=O)c3ccccc3)C(=O)C(C)C(OC(=O)CC(C)C)C(C)C(C(C)COC3OC(C)C(O)C(OC)C3OC)OC(=O)C(C)C(OC3CC(C)N(C)CC(C)O3)C2C)C1O (centres unmarked) [SEQ-9]?
Answer: Growth inhibition (MIC80) (M. bovis BCG Pasteur): 0.56 µM; MIC80 (M. bovis BCG Pasteur; Mycobacterium tuberculosis variant bovis BCG, BCG, read-out: Growth inhibition (MIC80)): 0.32 µM (≈ 0.398 µg/mL); MIC (M. bovis BCG Pasteur; Mycobacterium tuberculosis variant bovis BCG, BCG, read-out: MIC in Pasteur M. bovis BCG): 0.32 µM (≈ 0.398 µg/mL); Cytochrome 3A4 inhibition (in words) (CYP3A4): abolished; IC50 at 10 min (CYP3A4; human, microsomes, pH 7.4, midazolam, read-out: CYP3A4 inhibition, IC50 with midazolam as substrate): > 30 µM; IC50 at 30 min (CYP3A4; human, microsomes, pH 7.4, testosterone, read-out: CYP3A4 inhibition, IC50 with testosterone as substrate (T)): > 50 µM; solubility (physchem; MCT pH 7.4, read-out: Solubility: MCT@pH 7.4): 530 µg/mL (≈ 426 µM); solubility (physchem; aqueous buffer, PBS pH 7.4, read-out: Solubility: PBS@pH 7.4): 51 µg/mL (≈ 41 µM)
